Test results: patent publication US9828357B2, “Cyclic compounds” (Takeda Pharmaceutical Company Limited, priority 2015, dated 2017)

Columns and labels:
blood TNFα = experiment: Effect on blood TNF-α concentration elevation by LPS stimulation; assay type: in vivo; details: female BALB/c mice; 3 mg/kg intravenously 1 h before LPS 5 mg/kg i.p.; serum 1 h after LPS; vs control group
Description: Various kinds of cytokines are produced in vivo accompanying inflammatory response and abnormal immunity or the like. Therefore, the action of test compound with respect to blood TNFα concentration rise was investigated using laboratory animals.
Female BALB/c mice (6 weeks old) were purchased, and, after preliminary rearing for about 1 week, the mice were divided into groups of four animals. The test compound was dissolved in 10% captisol aqueous solution and was intravenously administered to the test group at a dose of 3 mg/kg. Solvent was administered to control group in the same way. LPS (5 mg/kg) was administered intraperitoneally to the test group and the control group one hour after the administration of the test compound or solvent, and blood was sampled one hour later. The serum was separated from the obtained blood, and the TNFα[…]concentration in the serum was measured using an assay kit made by R&D Systems Inc. The inhibition rates of the test group with respect to the control group are shown in Table 3.

[1] = system: liver injury by Galactosamine/LPS stimulation; experiment: Action on liver injury by Galactosamine/LPS stimulation (blood plasma ALT); assay type: in vivo; details: BALB/c mice; for ALT amount in the blood plasma: 8 hr, mean ± standard error
Description: The action on liver injury by Galactosamine/LPS stimulation was evaluated by elevation of blood alanine transaminase (ALT) amount as an index. Galactosamine (700 mg/kg) and LPS (5 μg/kg) were administered intraperitoneally to BALB/c mice (female, 7 weeks old, Japan Charles River). After 8 hr, the blood was collected in the presence of heparin. The obtained blood was centrifuged (4° C., 10000×rpm, 10 min), and the blood plasma was collected, and the ALT amount in the blood plasma was measured by 7180 type Hitachi automated analytical apparatus (Hitachi High-Technologies Corporation). Compound 6 was dissolved in 10% captisol solution (0.3, 1, 3 mg/kg), and the solution was administered intravenously to the mice in the tail vein 1 hr before Galactosamine/LPS administration.

TLR4 signal = experiment: Inhibitory effect on TNFα production from HMGB-1 stimulated human Kupffer cell; assay type: cell-based; details: human primary Kupffer cells, HMGB-1 10 μg/mL, 24 hr
Description: TLR4 signal inhibitory activity in human Kupffer cell was evaluated as an inhibition rate of the test compound for TNFα produced by addition of HMGB-1 (SHINO-TEST), using human primary Kupffer cells (Cat# HUKCCS, Lot#HK8226) purchase from GIBCO. Cell suspension prepared in RPMI 1640-Gluta MAX™ medium supplemented with 10% inactivated bovine fetal serum was plated in 96-well I-type collagen-coated plate so as to contain 3.1×10^4 cells/100 μL/well. Then, the cells were cultured for 6 hr at 37° C. under 5% CO2/95% air to be adhered to the bottom of the plate. The non-adhered cells were rinsed off with PBS, and the test compound dissolved in DMSO was added to the adhered cells (final concentration: 1, 10, 100 nM), and the mixture was cultured for 1 hr. Then, HMGB-1 was added thereto (final concentration: 10 μg/mL), and the mixture was incubated for additional 24 hr. TNFα production amount contained in the culture supernatant was quantified by ELISA method (R&D systems). TNFα production inhibition rate (%) was calculated using the value under the HMGB-1-free condition as control of 100% inhibition and the value under the compound-free condition as control of 0% inhibition.

[2] = system: oxaliplatin induced-neuropathic pain model mouse; experiment: Analgesic action on oxaliplatin induced-neuropathic pain model mouse; assay type: in vivo; details: C57BL/6N mice, 1 week after oxaliplatin 0.3 mg/kg i.p., mean ± standard error
Description: Oxaliplatin was diluted with saline by the predetermined concentration, and administered intraperitoneally to mice (C57BL/6N, male, 8 weeks old) at 0.3 mg/kg. The test compound was dissolved in 10% captisol or 10% captisol containing 0.1% N-methyl-2-pyrrolidone. The compound was administered intravenously (0.1-10 mg/kg body weight) to the mice immediately before intraperitoneal administration of various anticancer drugs. The pain threshold was measured 1 week after oxaliplatin administration. The pain threshold was evaluated as a weighted value (gram) showing pseudo-escape reaction, when the footpad of the right hind limb was pressed using balance type pressurizing device (Ugo Basile). The values in the table show the mean±standard errors of the weighted values.

`CCOC(=O)C1=CC2(CC[C@H]1S(=O)(=O)[C@H]1CCc3cccc(Cl)c31)O[C@H](CO)[C@@H](CO)O2` [Compound 6, Ethyl (2R,3R,8R)-8-(((1S)-7-chloro-2,3-dihydro-1H-inden-1-yl)sulfonyl)-2,3-bis(hydroxymethyl)-1,4-dioxaspiro[4.5]dec-6-ene-7-carboxylate] was tested, and the “Blood TNFα inhibition rate (% inhibition)” value (blood TNFα) was 93.1 % inhibition, the “ALT amount in the blood plasma” value ([1]; 0.3 mg/kg i.v. 1 hr before Galactosamine/LPS) was 570 ± 94 IU/L and the “ALT amount in the blood plasma” value ([1]; 1 mg/kg i.v. 1 hr before Galactosamine/LPS) was 361 ± 60 IU/L. For the same molecule, the “ALT amount in the blood plasma” value ([1]; 3 mg/kg i.v. 1 hr before Galactosamine/LPS) was 104 ± 10 IU/L, the “Effect on the increase in the ALT amount in the blood plasma due to Galactosamine/LPS stimulation (in words)” value ([1]; 0.3, 1, 3 mg/kg i.v.) was “dose-dependently and significantly inhibited the increase in the ALT amount” and the “TNFα production inhibition rate (% inhibition)” value (TLR4 signal; compound concentration 1 nM) was 45 % inhibition. The “TNFα production inhibition rate (% inhibition)” value (TLR4 signal; compound concentration 10 nM) was 82 % inhibition, the “TNFα production inhibition rate (% inhibition)” value (TLR4 signal; compound concentration 100 nM) was 85 % inhibition and the “Pain threshold (weighted value showing pseudo-escape reaction)” value (“Pain threshold” for short) ([2]; 1 mg/kg i.v.) was 190.0 ± 46.1 gram. For the same molecule, the “Pain threshold” value ([2]; 3 mg/kg i.v.) was 153.3 ± 46.1 gram and the “Pain threshold” value ([2]; 10 mg/kg i.v.) was 310.0 ± 45.6 gram.
